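Assay format: 96-well plates, 48-hour exposure. The concentration for 50% growth inhibition is given as GI50. TGI is the concentration that stops growth completely.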

Among the test systems are OVCAR-4 ovarian; BT-549 breast; RXF 393 renal; ACHN renal; LOX IMVI melanoma; CAKI-1 renal; HCC-2998 colon; SK-MEL-5 melanoma; IGROV1 ovarian; HCT-15 colon.
Experiment in all cases: growth of human tumour cells (NCI), 48 h

For the compound `O=C(Nc1ccc(Oc2ccc3nc(NC(=O)c4ccccc4)[nH]c3c2)cc1)Nc1cc(C(F)(F)F)ccc1F`, the GI50 in the assay on OVCAR-4 ovarian is 0.678 µM; with BT-549 breast, 1.19 µM; with RXF 393 renal, 1.11 µM; in the assay on ACHN renal, 1840 nM; with LOX IMVI melanoma, 970 nM; in the assay with CAKI-1 renal, 1090 nM. Moreover, the GI50 in the assay on HCC-2998 colon is 2380 nM; in the assay on SK-MEL-5 melanoma, 543 nM; in the assay on IGROV1 ovarian, 1470 nM; in the assay on HCT-15 colon, 2070 nM. The TGI is 2.71 µM in the assay on OVCAR-4 ovarian; 8.57 µM in the assay with BT-549 breast; 8.49 µM in the assay on RXF 393 renal; greater than 25 µM in the assay with ACHN renal; greater than 10.8 µM with LOX IMVI melanoma; 7.8 µM in the assay with CAKI-1 renal. The TGI in the assay on HCC-2998 colon is greater than 21.5 µM; with SK-MEL-5 melanoma it was 1830 nM; in the assay on IGROV1 ovarian it was greater than 21.1 µM; with HCT-15 colon, greater than 25 µM.

As to `CCOC(=O)c1c2c(n(Cc3ccccc3)c1C)-c1ccccc1C(=O)C2=O`, the GI50 in the assay with OVCAR-4 ovarian was 10.9 µM; in the assay with BT-549 breast it was 15.7 µM; in the assay with RXF 393 renal, 17.1 µM; in the assay with ACHN renal it was 12900 nM; in the assay with LOX IMVI melanoma, 11800 nM; in the assay with CAKI-1 renal it was 17200 nM. For the same compound, the GI50 was 6350 nM in the assay with HCC-2998 colon, 18000 nM with SK-MEL-5 melanoma, 4350 nM with IGROV1 ovarian and 15300 nM in the assay on HCT-15 colon. Further, the TGI in the assay on OVCAR-4 ovarian came out at 25.4 µM; in the assay on BT-549 breast, 29.7 µM; in the assay on RXF 393 renal it was 36.6 µM; in the assay with ACHN renal, 30.2 µM; in the assay with LOX IMVI melanoma it was 24.6 µM; with CAKI-1 renal it was 36.6 µM. In addition, the TGI stood at 19.6 µM in the assay on HCC-2998 colon, 41200 nM with SK-MEL-5 melanoma, 20.1 µM in the assay on IGROV1 ovarian and 30.8 µM with HCT-15 colon.

As to `CC(=O)c1cc2c(cc1Nc1c3ccccc3nc3occ(Cl)c13)OCO2`, the GI50 with OVCAR-4 ovarian is 82.9 µM; with BT-549 breast, 0.157 µM; with RXF 393 renal, 0.193 µM; with ACHN renal it was 460 nM; with LOX IMVI melanoma it was 435 nM; in the assay on CAKI-1 renal, 85 nM. Also, the GI50 in the assay on HCC-2998 colon is 187 nM; in the assay on SK-MEL-5 melanoma, 103 nM; in the assay with IGROV1 ovarian it was 185 nM; in the assay with HCT-15 colon, 328 nM. Moreover, the TGI in the assay with OVCAR-4 ovarian was greater than 100 µM; with BT-549 breast, greater than 100 µM; with RXF 393 renal, 0.523 µM; in the assay with ACHN renal, greater than 100 µM; in the assay with LOX IMVI melanoma it was greater than 100 µM; with CAKI-1 renal it was greater than 100 µM. Also, the values for the TGI in the assay on HCC-2998 colon, with SK-MEL-5 melanoma and in the assay with IGROV1 ovarian were 0.37 µM, 376 nM and greater than 100 µM, respectively.

`O=c1c2ccccc2n2n1CC(O)C2` (stereo not given): the TGI in the assay with OVCAR-4 ovarian was greater than 100 µM; in the assay with BT-549 breast it was greater than 100 µM; with RXF 393 renal, greater than 100 µM; in the assay on ACHN renal, greater than 24.6 µM; in the assay with LOX IMVI melanoma it was greater than 100 µM; in the assay on CAKI-1 renal it was greater than 100 µM. Moreover, the TGI in the assay on HCC-2998 colon is greater than 100 µM; in the assay on SK-MEL-5 melanoma it was greater than 100000 nM; in the assay on IGROV1 ovarian, greater than 100 µM; in the assay with HCT-15 colon, greater than 100 µM. Further, in the assay on BT-549 breast, the GI50 is greater than 100 µM.

Turning to `O=C1c2ccccc2C(=Cc2ccccc2)c2ccccc21`, the GI50 is 4.31 µM with OVCAR-4 ovarian; 3.71 µM in the assay with BT-549 breast; 3.06 µM with RXF 393 renal; 3890 nM in the assay with ACHN renal; 2320 nM in the assay with LOX IMVI melanoma; 1540 nM in the assay with CAKI-1 renal. The GI50 was 2690 nM in the assay on HCC-2998 colon, 2770 nM with SK-MEL-5 melanoma, 2350 nM in the assay on IGROV1 ovarian and 2160 nM in the assay with HCT-15 colon. In addition, the TGI with OVCAR-4 ovarian was found to be 24.4 µM; in the assay with BT-549 breast it was 15.6 µM; in the assay on RXF 393 renal it was 9.63 µM; in the assay with ACHN renal, 13.4 µM; with LOX IMVI melanoma, 10.7 µM; with CAKI-1 renal, 5.49 µM. Besides, the TGI was 10.1 µM in the assay on HCC-2998 colon, 10900 nM in the assay with SK-MEL-5 melanoma, 11.4 µM in the assay with IGROV1 ovarian and 21.8 µM with HCT-15 colon.

With `COC(=O)[C@]12CC[C@@H](C)[C@H](C)[C@@H]1C1=CC[C@@H]3[C@@]4(C)C(C=O)=C[C@@](C)(COC(=O)c5ccco5)[C@@H]4C(=O)C[C@@]3(C)[C@]1(C)CC2`, the GI50 in the assay on OVCAR-4 ovarian is 3.57 µM; in the assay on BT-549 breast it was 4.06 µM; in the assay with RXF 393 renal, 3.35 µM; with ACHN renal, 1220 nM; with LOX IMVI melanoma, 4420 nM; with CAKI-1 renal, 3770 nM. For the same compound, the GI50 in the assay on HCC-2998 colon was 6220 nM; with SK-MEL-5 melanoma, 294 nM; in the assay with IGROV1 ovarian, 7660 nM; in the assay on HCT-15 colon, 3960 nM. The TGI in the assay with OVCAR-4 ovarian was greater than 100 µM; in the assay on BT-549 breast it was greater than 100 µM; in the assay on RXF 393 renal, 35.3 µM; with ACHN renal, greater than 100 µM; with LOX IMVI melanoma, 31.2 µM; in the assay with CAKI-1 renal, greater than 100 µM. Moreover, the TGI in the assay on HCC-2998 colon is greater than 100 µM; in the assay on SK-MEL-5 melanoma, 1450 nM; with IGROV1 ovarian it was greater than 100 µM; in the assay on HCT-15 colon, greater than 100 µM.

The values are drawn from PubChem BioAssay (NCI).
